Assay results taken from the NIST ThermoML archive (doi:10.1016/j.fluid.2005.05.018).
± gives the expanded uncertainty stated by the source.

What was measured:
[1] = 101.33 kPa, Liquid
[2] = refractive index (Na D-line) (dimensionless); details: 293.15 K; 101.33 kPa; Liquid; Standard Abbe refractometry

| mass density ([1]; 298.15 K) [kg/m3] | refractive index [2] | mass density ([1]; 293.15 K) [kg/m3] | SMILES |
| --- | --- | --- | --- |
| 969.2 ± 0.3 | 1.383 ± 0.0007 |  | CCOC(=O)OCC [diethyl carbonate] |
|  | 1.3899 ± 0.0007 | 879 ± 0.5 | CCCC(=O)OCC [ethyl butanoate] |
|  | 1.3592 ± 0.0007 | 789.4 ± 0.6 | CCO [ethanol] |
| 866.4 ± 0.5 | 1.3751 ± 0.0007 |  | CC(=O)OC(C)C [1-methylethyl ethanoate] |
